Measurements taken from the NIST ThermoML archive (doi:10.1016/j.jct.2014.11.001).
Values joined by “and” are separate entries in the source; they are usually repeats but may differ in a detail not shown here. Equal values may be shown once.

What was measured:
[1] = for Normal melting temperature: DTA
[2] = Molar enthalpy of transition or fusion; conditions: Crystal; DSC

CNC(=O)c1cccnc1 [N-methylnicotinamide]
[1]
Conditions	vapor or sublimation pressure
329.17 K, Crystal, Calculated from knudsen effusion weight loss	0.000104 kPa and 0.000105 kPa
331.27 K, Crystal, Calculated from knudsen effusion weight loss	0.000132 kPa and 0.000134 kPa and 0.000131 kPa
333.15 K, Crystal, Calculated from knudsen effusion weight loss	0.000162 kPa and 0.00016 kPa and 0.000164 kPa
335.17 K, Crystal, Calculated from knudsen effusion weight loss	0.000211 kPa and 0.000209 kPa and 0.000206 kPa
337.27 K, Crystal, Calculated from knudsen effusion weight loss	0.000261 kPa and 0.000259 kPa
339.15 K, Crystal, Calculated from knudsen effusion weight loss	0.000328 kPa and 0.00032 kPa
341.16 K, Crystal, Calculated from knudsen effusion weight loss	0.000414 kPa and 0.000404 kPa
343.27 K, Crystal, Calculated from knudsen effusion weight loss	0.00051 kPa and 0.000505 kPa and 0.000513 kPa
345.13 K, Crystal, Calculated from knudsen effusion weight loss	0.000619 kPa and 0.000613 kPa and 0.000627 kPa
347.16 K, Crystal, Calculated from knudsen effusion weight loss	0.000784 kPa and 0.000776 kPa and 0.000771 kPa
347.78 K, Crystal, Closed cell (Static) method	0.00085 kPa
349.27 K, Crystal, Calculated from knudsen effusion weight loss	0.000971 kPa and 0.000964 kPa and 0.000957 kPa
349.78 K, Crystal, Closed cell (Static) method	0.00105 kPa
351.69 K, Crystal, Closed cell (Static) method	0.00127 kPa
353.72 K, Crystal, Closed cell (Static) method	0.00157 kPa
355.6 K, Crystal, Closed cell (Static) method	0.00191 kPa
357.66 K, Crystal, Closed cell (Static) method	0.00232 kPa
359.51 K, Crystal, Closed cell (Static) method	0.0028 kPa
361.62 K, Crystal, Closed cell (Static) method	0.00347 kPa
363.5 K, Crystal, Closed cell (Static) method	0.00416 kPa
365.47 K, Crystal, Closed cell (Static) method	0.00502 kPa
367.44 K, Crystal, Closed cell (Static) method	0.00604 kPa
369.43 K, Crystal, Closed cell (Static) method	0.00721 kPa
371.36 K, Crystal, Closed cell (Static) method	0.00857 kPa
373.27 K, Crystal, Closed cell (Static) method	0.01023 kPa
375.33 K, Metastable liquid, Closed cell (Static) method	0.01316 kPa
375.36 K, Crystal, Closed cell (Static) method	0.01234 kPa
377.25 K, Metastable liquid, Closed cell (Static) method	0.01508 kPa
377.39 K, Crystal, Closed cell (Static) method	0.01496 kPa
379.31 K, Metastable liquid, Closed cell (Static) method	0.01731 kPa
381.26 K, Closed cell (Static) method, Liquid	0.01991 kPa
383.29 K, Closed cell (Static) method, Liquid	0.0228 kPa
385.21 K, Closed cell (Static) method, Liquid	0.02592 kPa
387.24 K, Closed cell (Static) method, Liquid	0.02975 kPa
389.16 K, Closed cell (Static) method, Liquid	0.03359 kPa
391.17 K, Closed cell (Static) method, Liquid	0.03824 kPa
393.09 K, Closed cell (Static) method, Liquid	0.04305 kPa
395.12 K, Closed cell (Static) method, Liquid	0.04915 kPa
397.12 K, Closed cell (Static) method, Liquid	0.05526 kPa
399.02 K, Closed cell (Static) method, Liquid	0.06212 kPa
401.07 K, Closed cell (Static) method, Liquid	0.07023 kPa
403.01 K, Closed cell (Static) method, Liquid	0.07943 kPa
404.99 K, Closed cell (Static) method, Liquid	0.08886 kPa
406.95 K, Closed cell (Static) method, Liquid	0.09977 kPa
408.92 K, Closed cell (Static) method, Liquid	0.1117 kPa
410.86 K, Closed cell (Static) method, Liquid	0.1253 kPa
412.85 K, Closed cell (Static) method, Liquid	0.1398 kPa
414.81 K, Closed cell (Static) method, Liquid	0.1564 kPa
416.77 K, Closed cell (Static) method, Liquid	0.1735 kPa
418.72 K, Closed cell (Static) method, Liquid	0.194 kPa
420.68 K, Closed cell (Static) method, Liquid	0.2147 kPa
422.64 K, Closed cell (Static) method, Liquid	0.2384 kPa
424.61 K, Closed cell (Static) method, Liquid	0.2644 kPa
426.55 K, Closed cell (Static) method, Liquid	0.2952 kPa

Conditions	Normal melting temperature [°C]
[1], Crystal	106.0

Conditions	Molar enthalpy of transition or fusion [kcal/mol]
[2]	5.26

NC(=O)c1cccnc1 [3-pyridinecarboxamide]
[1]
Conditions	vapor or sublimation pressure
341.25 K, Crystal, Calculated from knudsen effusion weight loss	9.3e-05 kPa
343.28 K, Crystal, Calculated from knudsen effusion weight loss	0.000117 kPa and 0.000116 kPa
345.05 K, Crystal, Calculated from knudsen effusion weight loss	0.000142 kPa and 0.000141 kPa and 0.000144 kPa
347.23 K, Crystal, Calculated from knudsen effusion weight loss	0.000182 kPa and 0.000183 kPa and 0.000184 kPa
349.26 K, Crystal, Calculated from knudsen effusion weight loss	0.000228 kPa and 0.000226 kPa and 0.00023 kPa
351.07 K, Crystal, Calculated from knudsen effusion weight loss	0.000277 kPa and 0.000275 kPa and 0.00028 kPa
353.24 K, Crystal, Calculated from knudsen effusion weight loss	0.000356 kPa and 0.000352 kPa
355.27 K, Crystal, Calculated from knudsen effusion weight loss	0.000434 kPa and 0.00043 kPa and 0.000436 kPa
356.6 K, Crystal, Closed cell (Static) method	0.00051 kPa
357.06 K, Crystal, Calculated from knudsen effusion weight loss	0.000528 kPa and 0.000517 kPa and 0.000525 kPa
358.66 K, Crystal, Closed cell (Static) method	0.00063 kPa
359.25 K, Crystal, Calculated from knudsen effusion weight loss	0.000666 kPa and 0.000648 kPa and 0.000656 kPa
360.58 K, Crystal, Closed cell (Static) method	0.00078 kPa
361.29 K, Crystal, Calculated from knudsen effusion weight loss	0.000812 kPa and 0.000792 kPa and 0.000807 kPa
363.06 K, Crystal, Calculated from knudsen effusion weight loss	0.000975 kPa and 0.000964 kPa and 0.00097 kPa
364.49 K, Crystal, Closed cell (Static) method	0.00116 kPa
366.57 K, Crystal, Closed cell (Static) method	0.00143 kPa
368.47 K, Crystal, Closed cell (Static) method	0.00172 kPa
370.51 K, Crystal, Closed cell (Static) method	0.00211 kPa
372.43 K, Crystal, Closed cell (Static) method	0.00255 kPa
374.46 K, Crystal, Closed cell (Static) method	0.00311 kPa
376.31 K, Crystal, Closed cell (Static) method	0.00371 kPa
378.39 K, Crystal, Closed cell (Static) method	0.00451 kPa
380.33 K, Crystal, Closed cell (Static) method	0.00536 kPa
382.34 K, Crystal, Closed cell (Static) method	0.00647 kPa
384.22 K, Crystal, Closed cell (Static) method	0.00767 kPa
386.28 K, Crystal, Closed cell (Static) method	0.00925 kPa
388.17 K, Crystal, Closed cell (Static) method	0.01094 kPa
390.23 K, Crystal, Closed cell (Static) method	0.01311 kPa
392.23 K, Crystal, Closed cell (Static) method	0.01553 kPa
394.43 K, Crystal, Closed cell (Static) method	0.01868 kPa
396.07 K, Metastable liquid, Closed cell (Static) method	0.02388 kPa
396.08 K, Crystal, Closed cell (Static) method	0.02158 kPa
398.04 K, Metastable liquid, Closed cell (Static) method	0.02729 kPa
398.1 K, Crystal, Closed cell (Static) method	0.02563 kPa
400.07 K, Metastable liquid, Closed cell (Static) method	0.03101 kPa
402.04 K, Metastable liquid, Closed cell (Static) method	0.0351 kPa
404.02 K, Closed cell (Static) method, Liquid	0.03991 kPa
405.98 K, Closed cell (Static) method, Liquid	0.04492 kPa
407.93 K, Closed cell (Static) method, Liquid	0.05046 kPa
409.92 K, Closed cell (Static) method, Liquid	0.05717 kPa
411.89 K, Closed cell (Static) method, Liquid	0.06456 kPa
413.87 K, Closed cell (Static) method, Liquid	0.07284 kPa
415.82 K, Closed cell (Static) method, Liquid	0.08179 kPa
417.81 K, Closed cell (Static) method, Liquid	0.09162 kPa
419.77 K, Closed cell (Static) method, Liquid	0.103 kPa
421.72 K, Closed cell (Static) method, Liquid	0.1152 kPa
423.69 K, Closed cell (Static) method, Liquid	0.1283 kPa
425.65 K, Closed cell (Static) method, Liquid	0.1428 kPa
427.62 K, Closed cell (Static) method, Liquid	0.1598 kPa
429.58 K, Closed cell (Static) method, Liquid	0.1773 kPa
431.56 K, Closed cell (Static) method, Liquid	0.1973 kPa
433.69 K, Closed cell (Static) method, Liquid	0.2206 kPa

Conditions	Normal melting temperature [°C]
[1], Crystal	128.1

Conditions	Molar enthalpy of transition or fusion [kcal/mol]
[2]	5.66

CN(C)C(=O)c1cccnc1 [N,N-dimethylnicotinamide]
[1]
Conditions	vapor or sublimation pressure [kPa]
307.16 K, Metastable liquid, Closed cell (Static) method	0.00057
308.18 K, Crystal, Closed cell (Static) method	0.00049
309.14 K, Metastable liquid, Closed cell (Static) method	0.00069
309.15 K, Crystal, Closed cell (Static) method	0.00056
310.13 K, Crystal, Closed cell (Static) method	0.00062
311.15 K, Crystal, Closed cell (Static) method	0.0007
311.16 K, Metastable liquid, Closed cell (Static) method	0.00082
312.13 K, Crystal, Closed cell (Static) method	0.00078
313.1 K, Crystal, Closed cell (Static) method	0.00088
313.1 K, Metastable liquid, Closed cell (Static) method	0.00099
314.09 K, Crystal, Closed cell (Static) method	0.00098
315.07 K, Metastable liquid, Closed cell (Static) method	0.00118
315.1 K, Crystal, Closed cell (Static) method	0.0011
317.09 K, Metastable liquid, Closed cell (Static) method	0.00142
319.04 K, Closed cell (Static) method, Liquid	0.00169
321.01 K, Closed cell (Static) method, Liquid	0.002
322.97 K, Closed cell (Static) method, Liquid	0.00238
324.98 K, Closed cell (Static) method, Liquid	0.0028
326.94 K, Closed cell (Static) method, Liquid	0.00334
328.93 K, Closed cell (Static) method, Liquid	0.00388
330.88 K, Closed cell (Static) method, Liquid	0.00459
332.9 K, Closed cell (Static) method, Liquid	0.00538
334.96 K, Closed cell (Static) method, Liquid	0.00637
336.93 K, Closed cell (Static) method, Liquid	0.00748
338.92 K, Closed cell (Static) method, Liquid	0.00861
340.89 K, Closed cell (Static) method, Liquid	0.01
342.87 K, Closed cell (Static) method, Liquid	0.01163
344.83 K, Closed cell (Static) method, Liquid	0.0135
346.82 K, Closed cell (Static) method, Liquid	0.01555
348.79 K, Closed cell (Static) method, Liquid	0.0179
350.77 K, Closed cell (Static) method, Liquid	0.02072
352.74 K, Closed cell (Static) method, Liquid	0.02375
354.72 K, Closed cell (Static) method, Liquid	0.02718
356.68 K, Closed cell (Static) method, Liquid	0.03111
358.66 K, Closed cell (Static) method, Liquid	0.03534
360.66 K, Closed cell (Static) method, Liquid	0.04054
362.63 K, Closed cell (Static) method, Liquid	0.04582
364.61 K, Closed cell (Static) method, Liquid	0.05247
366.58 K, Closed cell (Static) method, Liquid	0.05911
368.55 K, Closed cell (Static) method, Liquid	0.06722
370.52 K, Closed cell (Static) method, Liquid	0.07569

Conditions	Normal melting temperature [°C]
[1], Crystal	44.2

Conditions	Molar enthalpy of transition or fusion [kcal/mol]
[2]	4.64
